From ChEMBL document CHEMBL1140101, “Synthesis, binding affinity, and molecular docking analysis of new benzofuranone derivatives as potential antipsychotics” (J Med Chem, 2008)

What was measured:
[1] = biological target: T1, 5-hydroxytryptamine receptor 2C (Homo sapiens, UniProt P28335); experiment: Displacement of [3H]mesulergine from human cloned 5HT2C receptor
T1 sequence (P28335 whole entry): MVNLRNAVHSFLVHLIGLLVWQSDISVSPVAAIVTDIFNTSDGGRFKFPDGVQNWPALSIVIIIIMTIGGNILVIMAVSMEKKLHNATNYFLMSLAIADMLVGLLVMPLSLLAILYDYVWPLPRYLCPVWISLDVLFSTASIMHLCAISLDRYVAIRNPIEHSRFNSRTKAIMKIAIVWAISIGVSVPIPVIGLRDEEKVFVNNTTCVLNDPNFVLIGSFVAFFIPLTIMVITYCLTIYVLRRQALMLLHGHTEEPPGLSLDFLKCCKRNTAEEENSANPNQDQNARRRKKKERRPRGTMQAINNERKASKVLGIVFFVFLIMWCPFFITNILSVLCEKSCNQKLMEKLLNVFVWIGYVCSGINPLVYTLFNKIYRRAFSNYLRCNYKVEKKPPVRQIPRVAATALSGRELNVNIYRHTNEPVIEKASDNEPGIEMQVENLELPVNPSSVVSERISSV

[2] = biological target: T2, 5-hydroxytryptamine receptor 2A (Homo sapiens, UniProt P28223); experiment: Displacement of [3H]ketanserin from human cloned 5HT2A receptor
[3] = biological target: T2, 5-hydroxytryptamine receptor 2A; experiment: Antagonist activity at human cloned 5HT2A receptor; assay type: functional

T2 sequence (P28223 whole entry): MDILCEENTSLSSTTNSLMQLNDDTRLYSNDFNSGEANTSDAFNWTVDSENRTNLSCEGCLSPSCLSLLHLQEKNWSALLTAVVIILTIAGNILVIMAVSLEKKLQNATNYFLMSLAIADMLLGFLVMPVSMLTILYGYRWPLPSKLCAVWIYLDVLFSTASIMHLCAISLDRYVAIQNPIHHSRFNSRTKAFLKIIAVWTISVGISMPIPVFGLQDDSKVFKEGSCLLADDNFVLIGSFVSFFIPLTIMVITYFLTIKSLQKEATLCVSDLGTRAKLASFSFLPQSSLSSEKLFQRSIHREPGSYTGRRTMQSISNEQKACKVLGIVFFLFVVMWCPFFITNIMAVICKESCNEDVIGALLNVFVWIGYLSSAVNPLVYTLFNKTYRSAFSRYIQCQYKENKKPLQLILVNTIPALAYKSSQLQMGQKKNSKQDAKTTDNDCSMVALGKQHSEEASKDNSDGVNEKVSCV

| Ki [1] [nM] | Ki [2] [nM] | pA2 [3] | SMILES |
| --- | --- | --- | --- |
| > 10000 | 21.9 |  | CCOC(=O)c1oc2c(c1C)C(=O)CC(CN1CCC(C(=O)c3ccc(F)cc3)CC1)C2 (stereo not drawn) |
| > 10000 | 1320 |  | O=C1CC(CN2CCN(C(=O)c3ccc(F)cc3)CC2)Cc2occc21 (stereo not drawn) |
| > 10000 | 25.7 |  | COC(=O)c1coc2c1C(=O)CC(CN1CCC(C(=O)c3ccc(F)cc3)CC1)C2 (stereo not drawn) |
|  |  | 9.25 | O=C1c2ccoc2CCC1CCN1CCC(c2noc3cc(F)ccc23)CC1 (stereo not drawn) |
| > 10000 | 8.32 |  | CCOC(=O)c1oc2c(c1C)C(=O)CC(CN1CCC(c3noc4cc(F)ccc34)CC1)C2 (stereo not drawn) |
| 339 | 5.5 | 7.95 | O=C1CC(CN2CCC(c3noc4cc(F)ccc34)CC2)Cc2occc21 (racemic) |
| > 10000 | 1.55 |  | COC(=O)c1coc2c1C(=O)CC(CN1CCC(c3noc4cc(F)ccc34)CC1)C2 (stereo not drawn) |
| 3310 | 6.92 |  | O=C1CC(CN2CCC(c3noc4cc(F)ccc34)CC2)Cc2oc(-c3ccccc3)cc21 (stereo not drawn) |
| 339 | 77.6 | 7.58 | O=C(c1ccc(F)cc1)C1CCN(CCC2CCc3occc3C2=O)CC1 (stereo not drawn) |
| 245 | 2.51 |  | O=C1C[C@@H](CN2CCC(c3noc4cc(F)ccc34)CC2)Cc2occc21 |
| 372 | 5.13 |  | O=C1C[C@H](CN2CCC(c3noc4cc(F)ccc34)CC2)Cc2occc21 |
| 1550 | 95.5 | 7.28 | O=C1CC(CN2CCC(C(=O)c3ccc(F)cc3)CC2)Cc2occc21 (stereo not drawn) |
| > 10000 | 17.4 |  | O=C1CC(CN2CCC(C(=O)c3ccc(F)cc3)CC2)Cc2oc(-c3ccccc3)cc21 (stereo not drawn) |
